Assay results as given in US11458153B2, “Drug delivery composition comprising a self-assembled gelator” (The Brigham and Women's Hospital, Inc., priority 2008, dated 2022).
Entries after “also recorded” stand apart in the source; their conditions may differ.

Key:
[1] = test system: mesenchymal stem cells (MSCs); assay: MSC viability, trypan blue exclusion; type: cell-based, human; settings: 250 μM, 48 hours incubation
Experimental: Cytocompatibility. The cytocompatibility of prodrugs generated from small modification of known drugs was investigated. […] To test the cyto compatibility of prodrug-based amphiphiles and bolaamphiphiles, and their effect on cell characteristics such as viability, proliferation, adhesion and cell phenotype, a series of experiments was performed with mesenchymal stem cells (MSCs). To gain more insight into the effect of modification, unmodified drug Apn was used as a control. The viability of control cells and cells treated with Apn, Apn-7-COOH and Apn-8-Apn was examined with trypan blue assay. Use of Mesenchymal stem cells is appropriate given that these systems may be used for localized release likely into connective tissues.
Mesenchymal Stem Cell Culture. Primary human mesenchymal stem cells were maintained in expansion media that consisted of 15% Fetal Bovine Serum (selected for its ability to expand MSCs), 1% (v/v) L-Glutamine, 1% (v/v) Penn-Strep, and α-MEM. All experiments were performed using MSCs at passage number 4-6.
Viability, Adhesion and Proliferation Characteristics. The viability of the cells was examined using trypan blue exclusion. […] The media was then aspirated and the cells were detached with 200 μL of cell dissociated solution (similar quantities of floating cells were observed between the groups, typically 5-10 per well). 300 μL of media was added and the total 500 μL of the cell dispersion was collected in an eppendorf tubes. From this 10 μL of cell dispersion was diluted to 1:1 with 4% trypan blue solution and cells were counted in a hemocytometer to determine the number viable (non-blue) and nonviable (blue) cells. A control for this experiment included cells treated with only phosphate buffer saline (PBS) without an amphiphile. Cell adhesion was quantified by measuring the number of adherent cells on tissue culture surfaces in 96 well plates after incubating with amphiphiles for 12 hours. For proliferation studies, 5000 cells were added to each well of a 96 well plate in 200 μL of MSC cell expansion media, and appropriate amphiphiles were then added and incubated at 37° C. and 5% CO2. Proliferation was quantified by manually tabulating the number of cells within the flask at multiple time points (1, 2, 3, 4, 6 and 8 days) with light microscopy at 10×.

[2] = test system: mesenchymal stem cells (MSCs); assay: MSC osteogenic differentiation, alkaline phosphatase staining; type: cell-based, human; settings: 250 μM, 23 days
Experimental: (§1) Unlike typical fibroblast cell lines used for toxicity screening, cultured mesenchymal stem cells are highly sensitive to the presence of soluble factors and can often loose their capacity for multi-lineage differentiation or differentiate into non-desired lineages depending on the culture conditions. To examine the impact of the acetaminophen amphiphilic prodrugs on multi-lineage differentiation of MSCs, cells were treated with adipogenic and osteogenic induction media in presence of amphiphiles followed by respective colorimetric histological staining.
Osteogenic Differentiation. MSCs were seeded in the wells of 24 well plates, and were culture in MSC expansion media until they reach 90% confluence (note: in control samples there was no amphiphile present, whereas in experimental samples 250 μM of Apn-based amphiphile was present). Osteogenic differentiation was induced by culturing the cells for 23 days in osteogenic induction media (from Lonza—MSCs Osteogenic Single Quote kit) containing dexamethasone, β-glycerophosphate, L-ascorbic acid-2-phosphate, and α-MEM. The media in both groups was changed every 3 days (note: each time while changing the media, 250 μM of Apn-based amphiphiles were added to maintain constant concentration). Osteogenesis was evaluated by cell membrane associated alkaline phosphatase activity. Alkaline phosphatase activity was examined after 23 days by carefully aspirating the media and washing the cells with PBS. The cells were fixed with 3.7% formaldehyde solution for 15 min at room temperature followed by rinsing with distilled water. 0.06% Red Violet LB salt solution in Tris HCl was added with distilled water containing DMF and Naphthol AS MX-PO4. The plates were incubated for 45 minutes at room temperature and then the wells were rinsed 3 times with distilled water and imaged under with inverted phase contrast microscope.

[3] = test system: mesenchymal stem cells (MSCs); assay: MSC adipogenic differentiation, Oil Red O staining; type: cell-based, human; settings: 250 μM, 23 days of induction
Experimental: as §1
Adipogenic Differentiation. MSCs were seeded in the wells of 24 well plates, and were culture in MSC expansion media until they reach 90% confluence (note: in control samples there was no amphiphile present, whereas in experimental samples 250 μM of Apn-based amphiphile was present). Adipogenic differentiation was induced by culturing the cells for 23 days in adipogenic induction media (from Lonza—MSCs Adipogenic Single Quote kit containing h-Insulin (recombinant), L-Glutamine, Dexamethasone, Indomethacin, IBMX (3-isobuty-1-methyl-xanthine), Pen/Strep) and adipogenic maintenance media (from Lonza—MSCs Adipogenic Single Quote kit containing h-Insulin (recombinant), L-Glutamine, Pen/Strep). […] Adipogenesis was evaluated by Oil Red O staining. Following aspiration of the media, cells were washed once with PBS, and fixed in PBS with 3.7% formaldehyde for 30 min at room temperature. Following fixation cells were rinsed with distilled water for a few minutes, and incubated with isopropanol containing an Oil Red O working solution (prepared by diluting 30 mL of 0.5% isopropanol/Oil Red O solution with 20 mL of distilled water). After 45 minutes culture well were rinsed twice with distilled water and 1 mL of hematoxylin was added to each well for 1 minute followed by aspiration and washing with distilled water. The wells were viewed using an inverted phase contrast microscope.

[4] = Gelation studies with Apn-based prodrug gelators in water and organic solvents; type: physicochemical; set-up: key to Gelation ability: G = gel; P = precipitate; S = soluble; I = insoluble; settings: for gelation in water (in words): water / aqueous solutions
Description: Gelation Studies with Prodrug-Based Gelators. Gelation abilities of Apn based amphiphilic prodrugs have been investigated thoroughly in a wide range of solvents. For detailed gelation results, see Table 1, below). Typically, the required amount of gelator was placed in a glass vial and with an appropriate solvent. […] The resulting solution was slowly cooled to room temperature and gelation was visually observed. […] Despite of prolonged heating Apn-11-CH3 was not soluble in water. […] In addition, Apn-7-COOH is soluble in basic solutions (pH is more than 8).
All gels were opaque in nature and stable for several weeks.
Preparation of Gels. Typically, gelator (0.1-5 mg) and required solvent (0.1-1 mL) were placed into a 2 mL scintillation vial, which was then sealed with a screw cap. The vial was heated with shaking until the solid was completely dissolved.

[5] = target: T1, lipase (Lipolase 100L, Type EX) (Thermomyces lanuginosus, UniProt O59952); assay: Enzyme-triggered hydrogel degradation and drug release; type: in vitro ADME; settings: curcumin-encapsulated hydrogel, lipase, 37° C., several days
T1 construct: purchased Novozymes through Brenntag North America Lipolase 100L, Type EX
T1 sequence (O59952 23-291): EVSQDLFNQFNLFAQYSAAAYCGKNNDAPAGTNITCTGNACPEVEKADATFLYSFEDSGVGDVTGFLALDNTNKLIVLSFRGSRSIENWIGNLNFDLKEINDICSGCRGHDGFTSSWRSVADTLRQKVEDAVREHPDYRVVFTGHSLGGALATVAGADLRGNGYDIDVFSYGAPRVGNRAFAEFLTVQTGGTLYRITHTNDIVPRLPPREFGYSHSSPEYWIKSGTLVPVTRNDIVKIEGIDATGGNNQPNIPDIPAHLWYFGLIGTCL
Experimental: Encapsulation and release of curcumin was previously studied by the Ultra-Violet absorbance spectroscopy (λmax at 424 nm). Absorbance spectrum of modified Apn-7-COOH was similar to that of Apn (FIG. 6B). In this instance, enzyme-triggered single and multiple drug delivery has been carried out using two sets of hydrogel samples, i.e., hydrogels of Apn-7-COOH and Apn-8-Apn with and without curcumin. In the first set, lipase (Lipolase 100L, Type EX, lipase units 100 KLU/g) was added to the preformed hydrogel of Apn-7-COOH (2 wt %) and kept it at 37° C. which is lower than gel melting temperature. It was anticipated that lipase (esterase) would hydrolyze the ester bond of prodrug-based gelator (Apn-7-COOH) to release acetaminophen and dicarboxylic acid as the hydrogel degrades. As expected, after 48 hours the gel completely degraded and became a clear solution.
To test this further, and examine multiple (two) drugs delivery (FIGS. 6A-6E), curcumin was encapsulated in the hydrogel of Apn-7-COOH (2 wt %) and to that lipase was added and kept it at 37° C. Absorbance spectra were recorded on aliquots which were collected (after the addition of enzyme to the hydrogel) at regular intervals (FIG. 6C). […] The concentration of the enzyme used in these in vitro experiments is higher than physiological concentration of esterases (for example, physiological concentration of cholesterol esterase is 7 U/ml).
Increasing either concentration of enzyme or incubation temperature to 45° C. doubles the drug release rate, which was correlating with previous findings.
To analyze the gel degradation mechanism, another prodrug Apn-5-ether-COOH was synthesized (FIG. 2), where hydrocarbon chain (which is bearing terminal carboxylic acid) was connected to the acetaminophen through an ether bond (C—O—C) to prevent the esterolytic cleavage by lipase.

[6] = cited from earlier work
[7] = Gelation ability of polyol amphiphiles in water and organic solvents; type: physicochemical; set-up: key: G = stable gel at room temperature; P = precipitate; Sol = soluble
Description: Examples of suitable solvents include water, salt water (such as a NaCl solution), different […] such as TRISZMA buffers, and alkaline and acidic solutions. In addition to water-based solutions, the compounds can gel various aromatic and non-aromatic organic solvents, such as benzene, toluene, hexane, and acetonitrile. All the gels obtained in Table 7 were thermally reversible. Above their gelation temperature, the gels dissolved in solvent, but could be returned to their original gel state upon cooling.

SMILES | solubility in water (in words) [4] | Gelation ability ([4]; solvent chloroform) | Gelation ability ([4]; solvent ethanol) | Gelation ability ([4]; solvent ethyl acetate) | Gelation ability ([4]; solvent isopropanol) | Gelation ability ([4]; solvent methanol) | Gelation ability ([4]; solvent t-butanol) | Gelation ability ([4]; solvent water) | minimum gelation concentration ([4]; solvent water) | gelation in water (in words) [4] | other results
CC(=O)Nc1ccc(O)cc1 [Apn, N-(4-hydroxyphenyl)acetamide, reference compound] | water soluble |  |  |  |  |  |  |  |  |  | viable cells [1]: 91%; osteogenic differentiation, alkaline phosphatase (ALP) staining [2]: robust capacity; also recorded: positive staining; adipogenic differentiation, Oil Red O (ORO) staining [3]: robust capacity; also recorded: positive staining
CC(=O)Nc1ccc(OCCCCCC(=O)O)cc1 [Apn-5-ether-COOH] |  |  |  |  |  |  |  |  |  | gelation behavior akin to Apn-7-COOH | state of hydrogel after incubation with lipase [5]: still intact; curcumin release into the solution ([5]; absorption spectroscopy): prevented curcumin release
COc1cc(C=CC(=O)CC(=O)C=Cc2ccc(O)c(OC)c2)ccc1O [curcumin, 1,7-bis(4-hydroxy-3methoxyphenyl)-1,6-heptadiene-3,5-dione] |  |  |  |  |  |  |  |  |  |  | solubility of curcumin in water [6]: 0.03 µM
CCCCCCCCCCCCCCCC(=O)NC(CO)(CO)CO [polyol-16] |  |  |  |  |  |  |  |  |  |  | Gelation ability ([7]; solvent 1,4-dioxane): Sol; Gelation ability ([7]; solvent CCl4): G; Gelation ability ([7]; solvent CH3CN): G; Gelation ability ([7]; solvent CHCl3): Sol; Gelation ability ([7]; solvent DMSO): Sol; Gelation ability ([7]; solvent NaCl (40 mM)): G; Gelation ability ([7]; solvent TRIS (50 mM)): G; Gelation ability ([7]; solvent acetone): Sol; Gelation ability ([7]; solvent acidic (pH < 3)): G; Gelation ability ([7]; solvent basic (pH > 12)): G; Gelation ability ([7]; solvent benzene): G; Gelation ability ([7]; solvent cyclohexane): G; Gelation ability ([7]; solvent toluene): G; Gelation ability ([7]; solvent water): G
CC(=O)Nc1ccc(OC(=O)CCCCCCC(=O)Oc2ccc(NC(C)=O)cc2)cc1 [Apn-8-Apn] |  | S | S | I | S | S | S | G | 1.1 wt/v % | formed stable hydrogels | viable cells [1]: 82%; osteogenic differentiation, alkaline phosphatase (ALP) staining [2]: robust capacity; also recorded: equally stained for ALP; adipogenic differentiation, Oil Red O (ORO) staining [3]: robust capacity; also recorded: equally stained for ORO

More lines, main results first:

solubility in water (in words) [4] | Gelation ability ([4]; solvent chloroform) | Gelation ability ([4]; solvent ethanol) | Gelation ability ([4]; solvent ethyl acetate) | Gelation ability ([4]; solvent isopropanol) | Gelation ability ([4]; solvent methanol) | Gelation ability ([4]; solvent t-butanol) | Gelation ability ([4]; solvent water) | minimum gelation concentration ([4]; solvent water) | gelation in water (in words) [4] | SMILES | other results
insoluble | S | S | I | S | S | S | G | 0.9 wt/v % |  | CC(=O)Nc1ccc(OC(=O)CCCCCCCCCCCCC(=O)Oc2ccc(NC(C)=O)cc2)cc1 [Apn-14-Apn] | 
sparingly soluble | S | S | I | S | S | S | G | 0.6 wt/v % |  | CC(=O)Nc1ccc(OC(=O)CCCCCCCCCCCCC(=O)O)cc1 [Apn-13-COOH] | 
not soluble | S | G | P | G | S | G | I |  | did not gelate | CCCCCCCCCCCC(=O)Oc1ccc(NC(C)=O)cc1 [Apn-11-CH3] | minimum gelation concentration ([4]; solvent ethanol): 1.5 wt/v %; minimum gelation concentration ([4]; solvent isopropanol): 0.8 wt/v %; minimum gelation concentration ([4]; solvent t-butanol): 0.6 wt/v %
